Consider 1 molecule from patent publication US10653655B2, “Composition for preventing or improving peripheral neuropathy” (AJINOMOTO CO., INC., priority 2014, dated 2020).

Experiment [1] has as its system peripheral neuropathic pain in an animal model of anticancer agent or diabetes. Conditions: at the maximum concentration of L-serine; WO 2011/111355; cited from earlier work.
Experiment [2] deals with rat having hypersensitive pain induced by gonitis inducing agent (Zymosan). Kind of experiment: Von Frey test in rat having hypersensitive pain induced by gonitis inducing agent (Zymosan) (Experimental Example 2). It counts as in vivo. As to conditions: SD rat, Zymosan 2 mg right knee; oral once per day; L-serine 10.5 mg/kg, EPA 300 mg/kg equivalent; 7 and 14 days; right and left foot; 4 g, 8 g, 15 g. The method, then:
(§1) 8-Week-old male SD rats were divided into 5 groups (2A group-2E group, N=7) based on the body weight, and 2 mg of a gonitis inducing agent (Zymosan) was administered to the right knee cartilage part in 4 groups other than 2A group. In addition, the following evaluation liquid was orally ingested once per day in the time zone of 4 to 5 hours after start of the light period for 21 days from the administration of the gonitis inducing agent to the right knee. As eicosapentaenoic acid administered to 2D group, 2E group, fish oil corresponding to 300 mg/body weight kg (equivalent to 429 mg/body weight kg as n-3 fatty acid) was used.
(§2) Evaluation Liquids for 2A Group-2E Group: • 2A group: distilled water • 2B group: distilled water • 2C group: L-serine 10.5 mg/body weight kg • 2D group: eicosapentaenoic acid 300 mg/body weight kg equivalent • 2E group: L-serine 10.5 mg/body weight kg+eicosapentaenoic acid 300 mg/body weight kg equivalent
Von Frey test was performed at 7 days and 14 days after the gonitis inducing agent administration. […] The ratio (%) of the number of pain response relative to the number (5 times) of filament pressing was calculated at each stimulation intensity.

For experiment [3] the test system is unchanged. Kind of experiment: Gastrocnemius weight of right and left foot in Zymosan gonitis rat (Experimental Example 2). The format is in vivo. As to conditions: 21 days after Zymosan, rank among 2C-2E groups. Here is the method:
as §1, §2
After the completion of ingestion of the evaluation liquid (21 days after gonitis inducing agent administration), rats were fasted for 17 hours, and the body weight, gastrocnemius weight of the right foot and the left foot, liver weight and weight of fat around epididymis of each group were measured.

In experiment [4] the test system is rat having hypersensitive pain induced by anticancer agent (Oxaliplatin). Kind of experiment: Von Frey test in rat having hypersensitive pain induced by anticancer agent (Experimental Example 1). The format is in vivo. Conditions: SD rat, Oxaliplatin 5 mg/kg i.p. 5 days; oral once per day 28 days; L-serine 10.5 mg/kg, EPA 300 mg/kg equivalent; 22 and 28 days; stimulation intensity 4 g, 8 g, 15 g. Here is the method: 6-Week-old male SD rats were divided into 5 groups (1A group-1E group, N=6) based on the body weight, an anticancer agent (Oxaliplatin 5 mg/body weight kg) was intraperitoneally administered to 4 groups other than 1A group for 5 days, and saline was intraperitoneally administered to 1A group for 5 days. In addition, the following evaluation liquid was orally ingested once per day in the time zone of 4 to 5 hours after start of the light period for 28 days simultaneously from the start of the intraperitoneal administration. As eicosapentaenoic acid administered to 1D group, 1E group, fish oil corresponding to 300 mg/body weight kg (equivalent to 429 mg/body weight kg as n-3 fatty acid) was used. Evaluation Liquids for 1A Group-1E Group: • 1A group: distilled water • 1B group: distilled water • 1C group: L-serine 10.5 mg/body weight kg • 1D group: eicosapentaenoic acid 300 mg/body weight kg equivalent • 1E group: L-serine 10.5 mg/body weight kg+eicosapentaenoic acid 300 mg/body weight kg equivalent Von Frey test was performed at 22 days and 28 days after the start of the anticancer agent administration. […] The ratio (%) of the number of pain response relative to the number (10 times) of filament pressing was calculated at each stimulation intensity.

`N[C@@H](CO)C(=O)O` [L-serine]: the “relieving effect on peripheral neuropathic pain due to anticancer agents and diabetes” value in experiment [1] is on record as “partial”. Further, the “number of pain response (Von Frey test) as compared to 2B group” value in experiment [2] was “slightly decreased”. The “gastrocnemius weight of the right foot, comparison in 2C group to 2E group” value in experiment [3] (after 17 h fasting) is given as “lowest”. In experiment [3], the “difference in the gastrocnemius weight of both feet, comparison among 2C group to 2E group” value was “largest”. In experiment [4], the “number of pain response (Von Frey test) as compared to 1B group” value is on record as “slightly decreased”.
